Marks after values point to notes of the source that are not given here.
Legend:
Male Hartley guinea pigs [1] = assay: Antigen-induced bronchoconstriction; type: in vivo, guinea pig; details: for antigen-induced bronchoconstriction (in words): summary of Tables 40-42
Procedure: Antigen-induced bronchoconstriction
Male Hartley guinea pigs were passively sensitized by intravenous injection of anti-OVA serum (antibody titer: 1: 3200), and 48 hours later, the animals were challenged by intravenous injection of OVA (70 micro g/kg). The bronchoconstriction induced by antigen was continuously monitored by means of modified method of Konzett-Rössler technique. The peak value of bronchoconstriction in each animal was used for evaluation of compounds. Compound (I-1b) and compound (B-2) were orally administered 1 hour before, compound (A) 2 hours before antigen challenge. The results are shown as follows. *: P<0.05 vs Vehicle, ##: P<0.01 vs Vehicle. ( ): inhibition %.

Male Hartley guinea pigs [2] = assay: Antigen-induced increase in the eosinophil number in bronchoalveolar lavage fluid; type: in vivo, guinea pig; details: for Eosinophils, inhibition % / Total cells, inhibition % / Cell number, Eosinophils / Cell number, Total cells: 10 mg/kg orally, 1 hour before and 24 and 48 hours after challenge; for Cell number, Eosinophils / Cell number, Total cells: BAL 72 hours; for eosinophil infiltration (in words): summary of Tables 37-39
Procedure: Antigen-induced increase in the eosinophil number in bronchoalveolar lavage fluid.
As described above, the animals were sensitized and challenged with antigen, seventy-two hours later, bronchoalveolar lavage was performed with 10 mL of saline. After the number of total cells in the recovered fluid was counted, smear samples were made. The samples were stained with May Grünward-Giemsa Stain, and differential cell count was performed by counting 500 cells/each sample. The eosinophil number was calculated by the ratio of the number of eosinophils, macrophages, neutrophils and lymphocytes. Compounds were orally administered three times 1 hour before and 24 and 48 hours after the challenge. The results are shown as follows. *: P<0.05, * *: P<0.01 vs Vehicle(Dunnett's test), : P<0. 01 vs Vehicle(Student's t test). ( ): inhibition %.

Male Hartley guinea pigs [3] = assay: Antigen-induced bronchial hyperresponsiveness; type: in vivo, guinea pig; details: for Log PD200: acetylcholine dose for 200% increase in bronchoconstriction; for induction of bronchial hyperresponsiveness (in words): summary of Tables 34-36
Procedure: Antigen-induced bronchial hyperresponsiveness
Male Hartley guinea pigs were actively sensitized to ovalbumin (OVA) by inhalation of aerosolized solution of 1% ovalbumin twice at a week interval. One week after the second sensitization, the animals were treated with antihistamine, diphenhydramine (10 mg/kg, i.p.), and then challenged with 1% OVA aerosol for 5 min. Twenty four hours later, acetylcholine at doses at 3.13, 6. 25, 12.5, 25, 50 and 100 micro g/kg was sequentially injected into the animals which were anesthetized with pentobarbital (30 mg/kg, i.p.). The bronchoconstriction induced by each dose of acetylcholine was monitored by the modified method of Konzett-Rössler technique, and made a dose-response curve of acetylcholine. Using the dose-response curve, the dose required for 200% increase in bronchoconstriction from baseline (PD200) was calculated in each animal and used as an indication of bronchial responsiveness. Compounds were orally administered 1 hour before antigen challenge. **: P<0.01 vs Vehicle(Dunnett's test), ##: P<0.01 vs Vehicle(Student's t test).

PGD2 receptor [4] = target: T1, PGD2 receptor (Homo sapiens, UniProt Q13258); assay: Antagonistic activity against PGD2 receptor using human platelet (inhibition of cAMP increase caused by PGD2); type: cell-based; details: Comparative Experiment 1; read-out: Experiment 3 Antaginistic activity against PGD2 receptor IC50
T1 sequence (Q13258 1-359): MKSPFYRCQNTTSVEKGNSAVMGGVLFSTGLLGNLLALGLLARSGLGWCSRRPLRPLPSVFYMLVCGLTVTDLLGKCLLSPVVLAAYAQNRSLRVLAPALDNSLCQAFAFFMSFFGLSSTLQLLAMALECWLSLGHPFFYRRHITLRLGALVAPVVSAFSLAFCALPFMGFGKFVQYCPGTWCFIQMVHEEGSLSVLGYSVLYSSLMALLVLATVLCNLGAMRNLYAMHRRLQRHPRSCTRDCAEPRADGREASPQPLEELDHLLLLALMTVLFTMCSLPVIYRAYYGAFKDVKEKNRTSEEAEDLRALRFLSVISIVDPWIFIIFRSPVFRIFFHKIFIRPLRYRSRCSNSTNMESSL
Procedure: Experiment 3 Evaluation of Antagonistic Activity Against PGD2 Receptor Using Human Platelet
Peripheral blood was collected from a healthy volunteer using a syringe in which 1/9 volume of a citric acid/dextrose solution was previously added. The sample was subjected to centrifugation at 180 g for 10 min to obtain the supernatant (PRP: platelet rich plasma). The resultant PRP was washed 3 times with a washing buffer and the number of platelets was counted with a micro cell counter. A suspension adjusted to contain the platelets at a final concentration of 5×10^8/ml was warmed at 37° C., then subjected to the pre-treatment with 3-isobutyl-1-methylxanthine (0.5 mM) for 5 min. To the suspension was added a test compound diluted at various concentration, and 10 minutes later, 0.1 μM PGD2 was added to induce the reaction 2 minutes later, hydrochloric acid was added to terminate the reaction. The platelet was destroyed with an ultrasonic homogenizer. After centrifugation, the cAMP in the supernatant was determined by radioimmunoassay. PGD2 receptor antagonism of a drug was evaluated as follows: the inhibition rate regarding cAMP increased by the addition of PGD2 was determined at each concentration, and the concentration of the drug required for 50% inhibition (IC50) was calculated.

PGD2 receptor [5] = target: T1, PGD2 receptor; assay: Binding activity to PGD2 receptor in human platelet membrane fraction ([3H]PGD2); parameters: The platelets were homogenized using a homogenizer (Ultra-Turrax) followed by centrifugation 3 times at 20,000 rpm; from tissue; host or cells: human platelet membrane fraction from blood of healthy volunteers; details: Comparative Experiment 1; read-out: Experiment 1 Antaginistic activity against PGD2 receptor IC50
Procedure: Experiment 1 Binding activity to PGD2 Receptor
(1) Preparation of Human Platelet Membrane Fraction
Blood was collected using a plastic syringe containing 3.8% sodium citrate from the vein of healthy volunteers (adult male and female), then put into a plastic test tube and mixed by slow-reversion. The sample was then centrifuged at 1800 rpm, for 10 min at room temperature, and the supernatant containing PRP (platelet-rich plasma) was collected. The PRP was recentrifuged at 2300 rpm, for 22 min at room temperature to obtain platelets. The platelets were homogenized using a homogenizer (Ultra-Turrax) followed by centrifugation 3 times at 20,000 rpm, 10 min at 4° C.. to obtain a platelet membrane fraction. After protein determination, the membrane fraction was adjusted to 2 mg/ml and preserved in a refrigerator at −80° C.. until using for the binding test.
(2) Binding to PGD2 Receptor
To a binding-reaction solution (50 mM Tris/HCl, pH 7.4, 5 mM MgCl2) (0.2 ml) were added the human platelet membrane fraction (0.1 mg) and 5 nM [^3H]PGD2 (115 Ci/mmol), and the mixture was reacted at 4° C. for 90 min. After the reaction, the mixture was filtered through a glass fiber filter paper and washed several times with cooled physiological saline, then the radioactivity retained on the filter paper was measured. The specific-binding ratio was calculated by subtracting the non-specific binding ratio which is the radioactivity similarly measured in the presence of 10 μM PGD2 from the total binding.

[6] = 1 mg/kg orally 1 hour before antigen challenge
[7] = 30 mg/kg orally 1 hour before antigen challenge
[8] = 10 mg/kg orally 1 hour before antigen challenge
[9] = 3 mg/kg orally 2 hours before antigen challenge
[10] = 10 mg/kg orally 2 hours before antigen challenge

IC50 (PGD2 receptor [4]) [µM]	IC50 (PGD2 receptor [5]) [µM]	Structure (SMILES)	Peak bronchoconstriction (Male Hartley guinea pigs [1]; [6]) [cm H2O]	Peak bronchoconstriction, inhibition % (Male Hartley guinea pigs [1]; [6]) [%]	Peak bronchoconstriction (Male Hartley guinea pigs [1]; [7]) [cm H2O]	Peak bronchoconstriction, inhibition % (Male Hartley guinea pigs [1]; [7]) [%]	antigen-induced bronchoconstriction (in words) (Male Hartley guinea pigs [1])	Eosinophils, inhibition % (Male Hartley guinea pigs [2]) [%]	Total cells, inhibition % (Male Hartley guinea pigs [2]) [%]	Cell number, Eosinophils (Male Hartley guinea pigs [2])	Cell number, Total cells (Male Hartley guinea pigs [2])	eosinophil infiltration (in words) (Male Hartley guinea pigs [2])	Log PD200 (Male Hartley guinea pigs [3]; [8])	induction of bronchial hyperresponsiveness (in words) (Male Hartley guinea pigs [3])	Peak bronchoconstriction (Male Hartley guinea pigs [1]; [9]) [cm H2O]	Peak bronchoconstriction, inhibition % (Male Hartley guinea pigs [1]; [9]) [%]	Peak bronchoconstriction (Male Hartley guinea pigs [1]; [10]) [cm H2O]	Peak bronchoconstriction, inhibition % (Male Hartley guinea pigs [1]; [10]) [%]	Log PD200 (Male Hartley guinea pigs [3]; [6])
		CC1(C)[C@H]2C[C@H](C/C=C\CCCC(=O)O)[C@@H](NC(=O)c3csc4ccc(O)cc34)[C@@H]1C2 [Compound B-2]	36.5 ± 18.2	−20	51.8 ± 16.3	−71	did not suppress	43	45	4.49 ± 0.63 ×10^6 cells/animal	13.01 ± 1.58 ×10^6 cells/animal	significantly suppressed	1.17 ± 0.05	did not inhibit					
> 10	> 10	O=C(O)CCC/C=C\C[C@H]1[C@@H]2CC[C@@H](C2)[C@@H]1NS(=O)(=O)c1ccccc1 [A]					dramatically suppressed	−18	−18	4.90 ± 0.73 ×10^6 cells/animal	13.78 ± 1.75 ×10^6 cells/animal	did not show any inhibitory actions	1.61 ± 0.09**	suppressed	55.3 ± 6.7	7	18.8 ± 3.3	68	1.29 ± 0.04

— patent publication US7105564B1, “Pharmaceutical composition comprising a dual antagonist against PGD2/TXA2 receptors having a [2.2.1] or [3.1.1] bicyclic skeleton” (Shionogi & Co., Ltd., priority 1999, dated 2006)
